Data reported in US6479435B1, “Diaryl ethers and processes for their preparation and herbicidal and desiccant compositions containing them” (ISK Americas Incorporated, priority 1997, dated 2002).

Experiments:
Format in all cases: in vivo
[1] = system: ivyleaf morningglory (Ipomoea hederacea, IPOHE); assay: Post-emerge greenhouse herbicide test, phytotoxicity rating; details: 14 days after application, scale 0-100
Outline: (§1)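 Plants at the 2-3 leaf stage, sown 8-21 days earlier, were track-sprayed post-emergence with compound in acetone plus 0.25% v/v non-ionic surfactant at 63-1000 g ai/ha (187 l/ha). Damage was rated at 14 days on a 0-100 scale (0 none, 100 all plants dead), for both crop injury and weed control.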

[2] = system: sicklepod (Cassia obtusifolia, CASOB); assay: as above; details: 14 days after application, scale 0-100
Outline: as §1

[3] = system: Johnsongrass (Sorghum halepense, SORHA); assay: as above; details: 14 days after application, scale 0-100
Outline: as §1

[4] = system: lambsquarters (Chenopodium album, CHEAL); assay: as above; details: 14 days after application, scale 0-100
Outline: as §1

[5] = system: redroot pigweed (Amaranthus retroflexus, AMARE); assay: as above; details: 14 days after application, scale 0-100
Outline: as §1

[6] = system: green foxtail (Setaria viridis, SETVI); assay: as above; details: 14 days after application, scale 0-100
Outline: as §1

[7] = system: barnyardgrass (Echinochloa crusgalli, ECHCG); assay: as above; details: 14 days after application, scale 0-100
Outline: as §1

[8] = system: large crabgrass (Digitaria sanguinalis, DIGSA); assay: as above; details: 14 days after application, scale 0-100
Outline: as §1

[9] = system: velvetleaf (Abutilon theophrasti, ABUTH); assay: as above; details: 14 days after application, scale 0-100
Outline: as §1

[10] = system: upland rice (Oryza sp., var.Tebonnet, RICE); assay: Pre-emerge greenhouse test, crop damage rating; details: 14 days after application, rating scale 0-100
Outline: (§2)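 Seeds sown in sandy loam one day before track-sprayer application of acetone solutions at 125–1000 g ai/ha (187 l/ha), then surface-watered to incorporate and bottom-watered. Injury scored visually at 14 days on a 0–100 scale (0 no damage, 100 complete death).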

[11] = system: field corn (Zea mays L., var. Dekalb 535, CORN); assay: Pre-emerge greenhouse test, crop damage rating; details: 14 days after application, rating scale 0-100
Outline: as §2

[12] = system: ivyleaf morningglory (Ipomoea hederacea, IPOHE); assay: Pre-emerge greenhouse herbicide test, phytotoxicity rating; details: 14 days after application, rating scale 0-100
Outline: as §2

[13] = system: sicklepod (Cassia obtusifolia, CASOB); assay: as above; details: 14 days after application, rating scale 0-100
Outline: as §2

[14] = system: Johnsongrass (Sorghum halepense, SORHA); assay: as above; details: 14 days after application, rating scale 0-100
Outline: as §2

[15] = system: lambsquarters (Chenopodium album, CHEAL); assay: as above; details: 14 days after application, rating scale 0-100
Outline: as §2

[16] = system: redroot pigweed (Amaranthus retroflexus, AMARE); assay: as above; details: 14 days after application, rating scale 0-100
Outline: as §2

[17] = system: common ragweed (Ambrosia artemisiifolia L., AMBEL); assay: as above; details: 14 days after application, rating scale 0-100
Outline: as §2

[18] = system: green foxtail (Setaria viridis, SETVI); assay: as above; details: 14 days after application, rating scale 0-100
Outline: as §2

[19] = system: barnyardgrass (Echinochloa crusgalli, ECHCG); assay: as above; details: 14 days after application, rating scale 0-100
Outline: as §2

[20] = system: large crabgrass (Digitaria sanguinalis, DIGSA); assay: as above; details: 14 days after application, rating scale 0-100
Outline: as §2

[21] = system: velvetleaf (Abutilon theophrasti, ABUTH); assay: as above; details: 14 days after application, rating scale 0-100
Outline: as §2

[22] = system: soybean (Glycine max L., var. Pella 86, SOY); assay: Pre-emerge greenhouse test, crop damage rating; design: key to SOY crop damage rating: 0 = no damage, 100 = complete death of all plants; details: 14 days after application, rating scale 0-100
Outline: as §2

[23] = system: soybean (Glycine max L., var. Pella 86, SOY); assay: Post-emerge greenhouse test, crop damage rating; design: key to crop damage rating SOY: 0-100 scale: 0 = no damage, 100 = complete death of all plants; details: 14 days after application, scale 0-100
Outline: as §1

[24] = system: common ragweed (Ambrosia artemisiifolia L., AMBEL); assay: Post-emerge greenhouse herbicide test, phytotoxicity rating; details: 14 days after application, scale 0-100
Outline: as §1

[25] = system: upland rice (Oryza sp., var.Tebonnet, RICE); assay: Post-emerge greenhouse test, crop damage rating; details: 14 days after application, scale 0-100
Outline: as §1

[26] = system: field corn (Zea mays L., var. Dekalb 535, CORN); assay: Post-emerge greenhouse test, crop damage rating; details: 14 days after application, scale 0-100
Outline: as §1

SMILES: COc1nc(OC)nc(Oc2cc(-n3c(=O)n4n(c3=S)CCCC4)c(F)cc2Cl)n1 [Compound 8-34]
- phytotoxicity rating IPOHE ([1]; rate 63 g ai/ha): 100
- phytotoxicity rating IPOHE ([1]; rate 500 g ai/ha): 100
- phytotoxicity rating CASOB ([2]; rate 63 g ai/ha): 30
- phytotoxicity rating CASOB ([2]; rate 500 g ai/ha): 100
- phytotoxicity rating SORHA ([3]; rate 63 g ai/ha): 0
- phytotoxicity rating SORHA ([3]; rate 500 g ai/ha): 50
- phytotoxicity rating CHEAL ([4]; rate 63 g ai/ha): 95
- phytotoxicity rating CHEAL ([4]; rate 500 g ai/ha): 100
- phytotoxicity rating AMARE ([5]; rate 63 g ai/ha): 50
- phytotoxicity rating AMARE ([5]; rate 500 g ai/ha): 100
- phytotoxicity rating SETVI ([6]; rate 63 g ai/ha): 20
- phytotoxicity rating SETVI ([6]; rate 500 g ai/ha): 65
- phytotoxicity rating ECHCG ([7]; rate 63 g ai/ha): 10
- phytotoxicity rating ECHCG ([7]; rate 500 g ai/ha): 0
- phytotoxicity rating DIGSA ([8]; rate 63 g ai/ha): 0
- phytotoxicity rating DIGSA ([8]; rate 500 g ai/ha): 40
- phytotoxicity rating ABUTH ([9]; rate 63 g ai/ha): 95
- phytotoxicity rating ABUTH ([9]; rate 500 g ai/ha): 100
- RICE crop damage rating ([10]; Rate 125 g al/ha): 20
- RICE crop damage rating ([10]; Rate 500 g al/ha): 50
- CORN crop damage rating ([11]; Rate 125 g al/ha): 0
- CORN crop damage rating ([11]; Rate 500 g al/ha): 5
- IPOHE phytotoxicity rating ([12]; Rate 125 g al/ha): 0
- IPOHE phytotoxicity rating ([12]; Rate 500 g al/ha): 80
- CASOB phytotoxicity rating ([13]; Rate 125 g al/ha): 0
- CASOB phytotoxicity rating ([13]; Rate 500 g al/ha): 40
- SORHA phytotoxicity rating ([14]; Rate 125 g al/ha): 20
- SORHA phytotoxicity rating ([14]; Rate 500 g al/ha): 80
- CHEAL phytotoxicity rating ([15]; Rate 125 g al/ha): 100
- CHEAL phytotoxicity rating ([15]; Rate 500 g al/ha): 100
- AMARE phytotoxicity rating ([16]; Rate 125 g al/ha): 100
- AMARE phytotoxicity rating ([16]; Rate 500 g al/ha): 100
- AMBEL phytotoxicity rating ([17]; Rate 125 g al/ha): 40
- AMBEL phytotoxicity rating ([17]; Rate 500 g al/ha): 100
- SETVI phytotoxicity rating ([18]; Rate 125 g al/ha): 80
- SETVI phytotoxicity rating ([18]; Rate 500 g al/ha): 99
- ECHCG phytotoxicity rating ([19]; Rate 125 g al/ha): 0
- ECHCG phytotoxicity rating ([19]; Rate 500 g al/ha): 40
- DIGSA phytotoxicity rating ([20]; Rate 125 g al/ha): 10
- DIGSA phytotoxicity rating ([20]; Rate 500 g al/ha): 80
- ABUTH phytotoxicity rating ([21]; Rate 125 g al/ha): 100
- ABUTH phytotoxicity rating ([21]; Rate 500 g al/ha): 100
- SOY crop damage rating ([22]; Rate 125 g al/ha): 10
- SOY crop damage rating ([22]; Rate 500 g al/ha): 0
- crop damage rating SOY ([23]; rate 63 g ai/ha): 50
- crop damage rating SOY ([23]; rate 500 g ai/ha): 90
- phytotoxicity rating AMBEL ([24]; rate 63 g ai/ha): 50
- phytotoxicity rating AMBEL ([24]; rate 500 g ai/ha): 95
- crop damage rating RICE ([25]; rate 63 g ai/ha): 0
- crop damage rating RICE ([25]; rate 500 g ai/ha): 40
- crop damage rating CORN ([26]; rate 63 g ai/ha): 5
- crop damage rating CORN ([26]; rate 500 g ai/ha): 15
